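Each compound was tested at five concentrations against cells in 96-well plates for 48 hours. The concentration for 50% growth inhibition is given as GI50. The concentration for full growth arrest is given as TGI.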
Tests used:
Test in all cases: DTP human tumour cell line panel, 48 h
[1] = test system: HOP-92 NSCLC
[2] = test system: M14 melanoma
[3] = test system: NCI-H460 lung
[4] = test system: SF-539 CNS
[5] = test system: SK-MEL-5 melanoma
[6] = test system: SK-OV-3 ovarian
[7] = test system: SW-620 colon
[8] = test system: TK-10 renal
[9] = test system: UACC-257 melanoma
[10] = test system: HT29 colon

## COc1ccc2c(c1)c(-c1nc(-c3cn(C)c4ncccc34)cs1)cn2CCCN1CCCCC1
[1]
  GI50: 1.67 µM
  TGI: 3.24 µM
[2]
  GI50: 1.65 µM
  TGI: 3.11 µM
[3]
  GI50: 1.95 µM
  TGI: 3.7 µM
[4]
  GI50: 1.75 µM
  TGI: 3.22 µM
[5]
  GI50: 1.79 µM
  TGI: 3.25 µM
[6]
  GI50: 1.83 µM
  TGI: 3.53 µM
[7]
  GI50: 1.9 µM
  TGI: 3.63 µM
[8]
  GI50: 1.64 µM
  TGI: 3.1 µM
[9]
  GI50: 1.92 µM
  TGI: 3.66 µM

## COC(=O)C(/C(=N/NC(N)=O)C(=O)Nc1ccc(C)cc1)c1nc2ccc([N+](=O)[O-])cc2[nH]c1=O (stereo not drawn)
[1]
  TGI: > 100 µM
[10]
  TGI: > 100 µM
[2]
  TGI: > 100 µM
[3]
  TGI: > 100 µM
[4]
  TGI: > 100 µM
[5]
  TGI: > 100 µM
[6]
  TGI: > 100 µM
[7]
  TGI: > 100 µM
[8]
  TGI: > 100 µM

## O=C(CI)NC1Oc2ccccc2-c2oc(=O)c(-c3ccccc3)cc21 (stereo not drawn)
[2]
  GI50: 1.67 µM
  TGI: 3.2 µM
[4]
  GI50: 1.73 µM
  TGI: 3.13 µM
[5]
  GI50: 3.26 µM
  TGI: 11.4 µM
[6]
  GI50: 1.83 µM
  TGI: 3.48 µM
[8]
  GI50: 1.71 µM
  TGI: 3.13 µM
[9]
  GI50: 2.07 µM
  TGI: 4.84 µM

## N#CSCC1CC(O)(c2ccccc2)C(c2ccccc2)C(c2ccc(Cl)cc2)O1 (stereo not drawn)
[10]
  GI50: 1.02 µM
  TGI: 2.45 µM
[2]
  GI50: 1.53 µM
  TGI: 3.15 µM
[4]
  GI50: 1.76 µM
  TGI: 3.17 µM
[5]
  GI50: 1.63 µM
  TGI: 2.98 µM
[6]
  GI50: 2.68 µM
  TGI: 6.21 µM
[7]
  GI50: 1.63 µM
  TGI: 3.93 µM
[8]
  GI50: 2.01 µM
  TGI: 4.2 µM
[9]
  GI50: 1.61 µM
  TGI: 3.39 µM

## COC(=O)c1cc2c3ccccc3[nH]c2c2ncccc12
[1]
  GI50: > 100 µM
  TGI: > 100 µM
[10]
  GI50: 59.2 µM
  TGI: > 100 µM
[3]
  GI50: 51.4 µM
  TGI: > 100 µM
[4]
  GI50: 17.4 µM
  TGI: > 100 µM
[5]
  GI50: 58 µM
  TGI: > 100 µM
[6]
  GI50: 43.3 µM
  TGI: > 100 µM
[7]
  GI50: 38.4 µM
  TGI: > 100 µM
[8]
  GI50: 12 µM
  TGI: > 100 µM
[9]
  GI50: > 100 µM
  TGI: > 100 µM

## O=C1c2cccc(NCCN=Cc3cc(O)ccc3O)c2C(=O)c2c(NCCN=Cc3cc(O)ccc3O)cccc21
[1]
  GI50: 1.29 µM
  TGI: 4.87 µM
[2]
  GI50: 2.01 µM
  TGI: 4.59 µM
[6]
  GI50: 2.34 µM
  TGI: 7.63 µM
[8]
  GI50: 2.21 µM
  TGI: 5.8 µM
[9]
  GI50: 3.1 µM
  TGI: 10.8 µM

## COc1cc(/C=C/c2cc(/C=C/c3ccc(O)c(OC)c3)n(-c3ccccc3)n2)ccc1O
[1]
  GI50: 0.452 µM
  TGI: 4.25 µM
[10]
  GI50: 0.724 µM
  TGI: 4.1 µM
[5]
  GI50: 0.252 µM
  TGI: 1.36 µM
[6]
  GI50: 0.334 µM
  TGI: 1.27 µM
[8]
  GI50: 0.563 µM
  TGI: 1.99 µM
[9]
  GI50: 1.22 µM
  TGI: 4.72 µM

## Cc1nn(CN2CCN(C)CC2)c(=S)n1/N=C/c1cccc2ccccc12
[1]
  GI50: 19.9 µM
  TGI: 46.5 µM
[2]
  GI50: 18.6 µM
  TGI: 39.3 µM
[3]
  GI50: 20.3 µM
  TGI: 41.6 µM
[4]
  GI50: 18.3 µM
  TGI: 34.7 µM
[5]
  GI50: 16.9 µM
  TGI: 32.1 µM
[6]
  GI50: 16 µM
  TGI: 42.3 µM
[7]
  GI50: 31.4 µM
  TGI: > 100 µM
[8]
  GI50: 20.5 µM
  TGI: 50.1 µM
[9]
  GI50: 22.2 µM
  TGI: 44.6 µM

Source: PubChem BioAssay (NCI)
